We go through seven compounds from paper PMC10955399 (RSC Advances, 2024).

Test [1] deals with Escherichia coli (MTCC2412). Kind of test: Agar well diffusion antibacterial activity. Format: cell-based. The settings on record: for Zone of inhibition, Escherichia coli: compound 1 mg mL^−1, radius of inhibition zone. On the technique in general: In agar diffusion tests the substance spreads into inoculated agar from a disc or well.
Test [2] deals with Bacillus cereus (MTCC2128). Kind of test: Agar well diffusion antibacterial activity. Format: cell-based. Conditions: for Zone of inhibition, Bacillus cereus: 100 μl, compound 1 mg mL^−1, radius of inhibition zone; for inhibitory activity against Bacillus cereus (in words): 1 mg mL^−1.
The test system of another test is Staphylococcus. Conditions: at the concentration tested; cited from earlier work.
The next test has as its system Enterococcus faecium. The settings on record: at the concentration tested; cited from earlier work.
The next test deals with Acinetobacter baumannii. The settings on record: cited from earlier work.

As to `Nc1ncnc2c1cnn2C=C1CC1(CO)CO` [10a (E&Z), (2-((4-amino-1H-pyrazolo[3,4-d]pyrimidin-1-yl)methylene)cyclopropane-1,1-diyl) dimethanol], in test [1] (100 μl, listed as 10a), the “Zone of inhibition, Escherichia coli” value is 1.2 ± 0.15 mm. The “Zone of inhibition, Bacillus cereus” value in test [2] (listed as 10a) turned out to be 2.2 ± 0.25 mm.

With `Nc1ncnc2c1cnn2C=C1CC1(CO)CO` [10a (E-Isomer), (2-((4-amino-1H-pyrazolo[3,4-d]pyrimidin-1-yl)methylene)cyclopropane-1,1-diyl) dimethanol], in test [1] (1 mg mL^−1), the “zone of inhibition against Escherichia coli (in words)” value was “zone of inhibition was observed”. Besides, the “Zone of inhibition, Escherichia coli” value in test [1] (75 μl) was found to be 0.9 ± 0.05 mm. In test [2], the “inhibitory activity against Bacillus cereus (in words)” value (“inhibitory activity” for short) is “showed inhibitory activity”.

In the case of `Nc1ncnc2c1cnn2C=C1CC1(CO)CO` [10a (Z-Isomer), (2-((4-amino-1H-pyrazolo[3,4-d]pyrimidin-1-yl)methylene)cyclopropane-1,1-diyl) dimethanol], the entries for the “Zone of inhibition, Escherichia coli” value in test [1] (75 μl) and in test [1] (100 μl) were 0.9 ± 0.05 mm and 1.2 ± 0.15 mm, respectively.

Turning to `Nc1ncnc2c1c(I)nn2C=C1CC1(CO)CO` [10b (E&Z), (2-((4-amino-3-iodo-1H-pyrazolo[3,4-d]pyrimidin-1-yl)methylene)cyclopropane-1,1-diyl)dimethanol], the “inhibitory activity” value in test [2] was “showed inhibitory activity”. In addition, in test [2] (listed as 10b), the “Zone of inhibition, Bacillus cereus” value came out at 1.4 ± 0.1 mm.

For the compound `Nc1ncnc2c1c(I)nn2C=C1CC1(CO)CO` [10b (Z-Isomer), (2-((4-amino-3-iodo-1H-pyrazolo[3,4-d]pyrimidin-1-yl)methylene)cyclopropane-1,1-diyl)dimethanol], in test [2], the “Zone of inhibition, Bacillus cereus” value turned out to be 2.2 ± 0.25 mm.

In the case of `Nc1ncnc2c1c(-c1ccc(Oc3ccccc3)cc1)nn2C=C1CC1(CO)CO` [10c (E&Z), (2-((4-amino-3-(4-phenoxyphenyl)-1H-pyrazolo[3,4-d]pyrimidin-1-yl)methylene)cyclopropane-1,1-diyl) dimethanol], the “inhibitory activity” value in test [2] is given as “showed inhibitory activity”.

As to `CC(C)=CCCC1(C)C(CC=C(C)C)CC23CCC(C)(C)OC2=C(C(=O)c2ccc(O)c(O)c2)C(=O)C1(CC=C(C)C)C3=O` (centres unmarked) [schomburgkianone I], in the test on Staphylococcus, the “inhibitory effect on Staphylococcus (in words)” value is given as “exhibited inhibitory effects”. Moreover, the “inhibitory effect on Enterococcus faecium (in words)” value with Enterococcus faecium was “exhibited inhibitory effects”. In the test with Acinetobacter baumannii, the “activity against Acinetobacter baumannii (in words)” value is given as “no activity”.
